Measured values from US20060178307A1, “Modulation of NMDA receptor currents via orexin receptor and/or CRF receptor” (priority 2005, published 2006).
“Also recorded” adds a separate entry of the source. Where no end group is shown, it is not given here.

Legend:
Assay type in all cases: cell-based, rat
[1] = tested on: NMDAR-mediated EPSCs in VTA dopamine neurons; assay: Evoked NMDAR-mediated EPSCs, whole-cell voltage clamp at +40 mV, VTA neurons in midbrain slices; settings: for effect on orexin A-mediated potentiation of NMDAR EPSCs: antagonist 1 μM, n=8 (FIG. 1C)
Method: (§1) Excitatory postsynaptic currents (EPSCs) were recorded from VTA neurons in rat midbrain slices. EPSCs were evoked while holding neurons in voltage clamp at +40 mV. Measurements were taken 20 ms after the stimulus artifact, a time point at which the glutamatergic EPSC is mediated purely by NMDARs.
The patch pipette was loaded with the PLC inhibitor, U-73122 (1 μM, FIG. 2A, C, n=6) or the PKC inhibitor, chelerythrin (1 μM, FIG. 1A, B, n=6). […] Next, the protein kinase A inhibitor, PKI (20 μM, FIG. 2A, F, n=8) or Rp-cAMPs, a blocker of cAMP (100 μM, FIG. 2A, E, n=5) was added to the patch pipette.
Activation of PKC is implicated in NMDAR-dependent long-term potentiation (Malinow et al., 1989) and it modulates NMDAR trafficking to the membrane (Lan et al., 2001; Scott et al., 2001; Fong et al., 2002). NMDARs can translocate from intracellular or extrasynaptic pools to synaptic sites (Lan et al., 2001; Tovar and Westbrook, 2002). […] In a separate group of slices, orexin A (100 nM, n=6) was applied for 5 min during the washout period.
(§2) All of the electrophysiological recordings were performed in rats ranging from P21 to P30. Briefly, rats were anesthetized with halothane and sacrificed. Horizontal sections of the VTA ([…]) were prepared with a vibratome (Leica, Nussloch, Germany). Slices were placed in a holding chamber and allowed to recover for at least 1 hour before being placed in the recording chamber and superfused with bicarbonate-buffered solution (ACSF) saturated with 95% O2/5% CO2 and containing (in mM): 119 NaCl, 1.6 KCl, 1.0 NaH2PO4, 1.3 MgCl2, 2.5 CaCl2, 26.2 NaHCO3 and 11 glucose (at 32-34° C.). Picrotoxin (100 μM) was added to block GABAA receptor-mediated inhibitory postsynaptic currents. Cells were visualized using infrared differential interference contrast video microscopy. Whole-cell voltage clamp recordings were made using an Axopatch 1D amplifier (Axon Instruments, Union City, Calif.). Electrodes (2.8-4.0 MΩ) contained (in mM): 120 Cesium Methansulfonate, 20 HEPES, 0.4 EGTA, 2.8 NaCl, 5 TEA-Cl, 2.5 MgATP, and 0.25 NaGTP, pH 7.2-7.3 (270-285 mOsm). Series resistance (10-40 MΩ) and input resistance were monitored on-line with a 4-mV depolarizing step (50 ms) given just after every afferent stimulus. Dopaminergic VTA neurons were identified by the presence of a large Ih current (Lacey et al., 1990; Johnson and North, 1992) and, in some cases, tyrosine hydroxylase labeling. A bipolar stimulating electrode was placed 100-300 μm rostral to the recording electrode and was used to stimulate excitatory afferents at 0.1 Hz. Neurons were voltage-clamped at −70 mV and +40 mV to record AMPAR- and NMDAR-mediated EPSCs.

[2] = tested on: AMPAR mEPSCs; assay: AMPAR-mediated miniature EPSCs (mEPSCs) in VTA neurons
Method: Next, to investigate whether AMPAR function and/or number was modified with orexin A treatment, AMPAR-mediated miniature EPSCs (mEPSCs) were examined (a standard method for determining the locus of synaptic change). Compared to untreated neurons, orexin A (100 nM) caused a significant increase in both amplitude (FIG. 6C,D,F) and frequency (FIG. 6C,E,G) 3-4 hours after application (24±1.6 pA; 2.4±0.5 Hz; n=7 vs control: 13±1.3 pA; 0.93±0.16 Hz; n=7; FIG. 6A), but not at 15 min (15±1.7 pA; 0.9±0.1 Hz; n=[…], FIG. 6B).
AMPAR mEPSCs were recorded in cells voltage-clamped at −70 mV in lidocaine (500 μM), APV (50 μM) and sucrose (100 mM). NMDAR mEPSCs were recorded at −40 mV in Mg2+-free external solution with lidocaine (500 μM), glycine (20 μM), and CNQX (10 μM). mEPSCs were collected using Clampex (Axon Instruments) and analyzed using Mini Analysis Program (Synaptosoft). Detection criteria were set at >10 pA, <1 ms rise-time, and <3 ms decay-time for AMPAR mEPSCs and >10 pA, <1 ms rise-time, and <10 ms decay-time for NMDAR mEPSCs. mEPSC traces were recorded while sampling every 10 μs, the images were filtered at 5 kHz. Averaged mEPSCs were constructed using Mini Analysis Program (Synaptosoft).

[3] = tested on: AMPAR-mediated EPSCs in VTA dopamine neurons; assay: Evoked AMPAR-mediated EPSCs recorded at −70 mV, VTA slices; settings: orexin A 100 nM
Method: as §1
as §2, with “Electrodes (2.8-4.0 MΩ) contained (in mM): 120 Cesium Methansulfonate, 20 HEPES, 0.4 EGTA, 2.8 NaCl, 5 TEA-Cl, 2.5 MgATP, and 0.25 NaGTP, pH 7.2-7.3 (270-285 mOsm).” left out, “Dopaminergic VTA neurons were identified by the presence of a large Ih current (Lacey et al., 1990; Johnson and North, 1992) and, in some cases, tyrosine hydroxylase labeling. A bipolar stimulating electrode was placed 100-300 μm rostral to the recording electrode and was used to stimulate excitatory afferents at 0.1 Hz. Neurons were voltage-clamped at −70 mV and +40 mV to record AMPAR- and NMDAR-mediated EPSCs.” left out

[4] = 3-4 hours after orexin A 100 nM, n=7
[5] = 3-4 hours after orexin A, APV 50 μM applied 3 min prior and during orexin, n=7
[6] = 15 min after orexin A 100 nM, n=6
[7] = orexin A 100 nM in the presence of ifenprodil 3 μM, n=6

## Cc1nc2ccc(NC(=O)Nc3ccnc4cccnc34)cc2o1.Cl [SB 334867, 1-(2-methylbenzoxazol-6-yl)-3-[1,5]naphthyridin-4-yl urea hydrochloride]
[1]; hydrochloride
  effect on orexin A-mediated potentiation of NMDAR EPSCs: significantly inhibited
[1]; listed as SB 334857, hydrochloride
  effect on orexin A-mediated potentiation of NMDAR EPSCs: blocked

## orexin A: neuropeptide synthesized in neurons of the LH; orexin receptor agonist selective for the OXR1 receptor (QPLPDCCRQKTCSCRLYELLHGAGNHAAGILTL; ends and bridges not checked; cysteine pairing not given here; UniProt O43612 34-66, looked up)
[2]; [4]
  AMPAR mEPSC amplitude: 24±1.6 pA
  AMPAR mEPSC frequency: 2.4±0.5 Hz
[2]; [5]
  AMPAR mEPSC amplitude: 16±0.6 pA
  AMPAR mEPSC frequency: 1.6±0.3 Hz
[2]; [6]
  AMPAR mEPSC amplitude: 15±1.7 pA
  AMPAR mEPSC frequency: 0.9±0.1 Hz
[1]; 2 TH-negative neurons
  response of neurons that did not express TH: neither responded
[1]; 5 min co-application of orexin A 1 nM with CRF 10 nM, n=7
  NMDAR eEPSCs potentiated to a maximum of: 123±12%
[1]; NR2A/C (NVP-AAM077 0.4 μM) and NR2B (ifenprodil 3 μM) inhibitors co-applied, n=6
  NMDAR EPSC before orexin A: 32±5%
[1]; biocytin-filled, tyrosine hydroxylase positive neurons
  TH-containing neurons with potentiated NMDAR responses: 7/8
[1]; orexin A 1 nM (FIG. 1B), n=6
  potentiation of NMDAR-mediated EPSCs: 5±1%
[1]; orexin A 1 nM (FIG. 14A), n=6
  potentiation of NMDARs: 5.7±1.6%
[1]; orexin A 10 nM (FIG. 1B), n=6
  potentiation of NMDAR-mediated EPSCs: 18±3%
[1]; orexin A 100 nM 5 min during washout of MK-801 10 μM, n=6
  maximum current after MK-801 washout: 40±17%
[1]; orexin A 100 nM (FIG. 1B), n=6
  potentiation of NMDAR-mediated EPSCs: 42±5%
[1]; orexin A 100 nM after NVP-AAM077 0.4 μM and ifenprodil 3 μM co-application
  orexin A potentiation of NMDAR EPSCs: largely inhibited; also recorded: blocked
[1]; orexin A 100 nM applied for 30 min
  duration of potentiation after washout: > 40 min
[1]; orexin A 100 nM applied for 30 min, n=6
  potentiation of NMDAR EPSCs: 74±16%
[1]; orexin A 100 nM bath application 5 min (FIG. 1A), n=12
  potentiation of NMDAR-mediated EPSCs: 49±9%
[1]; orexin A 100 nM in the presence of NVP-AAM077 0.4 μM, n=7
  maximum potentiation of NMDAR EPSCs: 20±6%
[1]; orexin A 100 nM in the presence of NVP-AAM077, ifenprodil and PPDA
  effect on remaining current: did not alter
[1]; [7]
  maximum amplitude, of baseline EPSCs: 107±16%
  potentiation of NMDAR-mediated EPSCs: 36%
[1]; orexin A 100 nM with NVP-AAM077 0.4 μM and ifenprodil 3 μM co-applied, n=6
  NMDAR EPSC after orexin A: 45±12%
[1]; orexin A 100 nM, 5 min
  neurons with potentiation greater than 10% / neurons recorded: 10/12
[1]; orexin A 5 min during washout of MK-801 20 μM + NMDA 500 μM, n=6
  maximum current after MK-801 and NMDA washout: 20±2%
[1]; orexin A in the presence of Zn2+ (300 nM), n=5
  maximum potentiation of NMDARs: 14±4%
[3]; n=8
  change of AMPAR-mediated EPSCs: not changed
[3]; n=8, listed as Orexin A
  change of AMPAR-mediated EPSCs: does not increase
